Measured values as given in the METLIN SMRT retention time set (Domingo-Almenara et al. 2019).

Assay: gradient 5% acetonitrile 3 min, to 50% in 2 min, to 85% in 15 min, held 3 min, 100 µL/min
Settings: column: Zorbax Extend-C18 2.1 x 50 mm; eluents: water / acetonitrile, 0.1% formic acid
Procedure, shortened: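 Pure standards were run in mixtures of ~100 molecules by HPLC coupled to a quadrupole time-of-flight mass spectrometer. The column was a Zorbax Extend-C18 (2.1 × 50 mm, 1.8 μm) at 100 μL/min, with water and acetonitrile each containing 0.1% formic acid, in positive and negative ionization mode. Dead and dwell volumes were 40 μL and 900 μL. Retention time was taken from computationally picked adduct peaks, each manually inspected, with data collected over 3 months.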

Structure (SMILES)	RP-LC retention time [s]
CCCn1c(C)cnc1CC1CCN(S(=O)(=O)c2ccc3c(c2)OCCO3)CC1	560
Cc1ccccc1CNS(=O)(=O)c1cn(CC(C)C)c2ncccc12	763
COc1cccc(C(=O)NC2CCN(c3cc(C)cc(C)c3)C2=O)c1 (stereo not given)	876
CC1CCN(S(=O)(=O)N2CCCC(C(=O)NCc3ccc(Cl)cc3)C2)CC1 (stereo not given)	1050
Cc1cccc(N2CCN(Cc3nc(-c4ccc(N5CCCC(C)C5)nc4)no3)CC2)c1C (stereo not given)	1260
Cc1c(Cl)cccc1Nc1c(-c2ccc(O)cc2)nc2ncccn12	705
CN(C)S(=O)(=O)c1ccc(-c2nnc(C(=O)NCc3ccc4c(c3)OCO4)o2)cc1	814
O=C(Nc1ccc(F)cc1)N1CCC(CCNC(=O)C2(c3ccccc3)CC2)CC1	897
CCOc1ccc(N2CC(c3nnc(NC(=O)CC4CCCCC4)o3)CC2=O)cc1 (stereo not given)	804
CN(C(=O)Cn1nc(Cc2ccncc2)c2ccccc2c1=O)c1cccc(Cl)c1	644
O=S(=O)(c1ccccc1F)N1CCc2nc(-c3ccc(Cl)cc3)ncc2C1	1190
Cc1ccc(NS(=O)(=O)c2cc(-c3[nH]ncc3C(=O)N3CCOCC3)oc2C)cc1C	713
O=C(NCC(c1cccnc1)N1CCc2ccccc2C1)C(=O)NC1CCCCCC1 (stereo not given)	681
COC1CCC12CCN(C(=O)c1ocnc1C)CC2 (stereo not given)	692
Cc1ccc(-c2cc3c(=O)n(Cc4noc(CN5CCCC(C)C5)n4)ccn3n2)cc1 (stereo not given)	705
COCc1nn(CC2CC2)c2c1CN(C(=O)c1ccc(C)s1)CC2	775
CC(C)(C)c1noc(-c2cccnc2-n2cnc(C(=O)Nc3cccc(F)c3)c2)n1	1000
CC1=C(c2ccc(C)c(C)c2)S(=O)(=O)N=C1N1CCC(NC(=O)C2CCCO2)CC1 (stereo not given)	788
O=C1CCCc2cc(S(=O)(=O)N3CCC(C(=O)Nc4cccc(F)c4)CC3)ccc2N1	770
CCn1cc2c(n1)c(=O)n(Cc1ccccc1)c(=O)n2CC(=O)NCc1ccccc1Br	890
O=S(=O)(CCc1noc(-c2cccc(F)c2)n1)c1ccccc1	904
Cc1nn(-c2ccc(-c3ccccc3)nn2)c(C)c1S(=O)(=O)NCCC(C)C	1130

Structure (SMILES)	RP-LC retention time [s]
O=C(Nc1ccc2c(c1)OCO2)C1CCCN(c2ccnc(-c3ccc(F)cc3)n2)C1 (stereo not given)	674
O=C(Cn1cnc2c(sc3nc(-c4ccccc4)ccc32)c1=O)NCc1ccccc1	953
Cc1ccc(C)c(NC(=O)C2CCN(S(=O)(=O)c3ccc4c(c3)CCCC(=O)N4)CC2)c1	768
CCN(C(=O)C1CCCN(c2ncnc3c2nc2n3CCCCC2)C1)c1ccccc1 (stereo not given)	838
CCC(=O)Nc1nc(-c2ccc(C(C)C)cc2)cs1	1000
COc1cccc(-n2c(=O)c(C(=O)Nc3cc(F)cc(F)c3)c(O)c3cccnc32)c1	1210
OC(c1ccccc1)(c1ccccc1)C1CN2CCC1CC2 (stereo not given)	733
O=C(CC1CCCN(c2cnn(CC3CC3)c(=O)c2)C1)N1CCSCC1 (stereo not given)	740
CCCNC(=O)CCc1nc2ccccc2n(CC(=O)NCc2ccccc2)c1=O	1270
CCc1nccn1Cc1nc(-c2ccc3c(c2)OCO3)no1	621
COc1ccc(CN2CCc3nc(N4CCCC4)ncc3C2)c(OC)c1	619
CC(C)(C)c1noc(-c2ccc(-n3cnc(C(=O)N4CCCCCC4)c3)nc2)n1	1030
NC(=O)c1ccsc1NC(=O)c1ccccc1[N+](=O)[O-]	669
O=C(CN1CCC(c2nc(-c3ccccc3)no2)CC1)NC1CCCCC1	700
CCc1nc2cc(N3CCC(C(=O)NCc4cc(F)ccc4F)CC3)cnc2nc1CC	838
CCC(C)NC(=O)Cn1c(=O)n(CCCCC(=O)NC2CCCC2)c(=O)c2ccccc21 (stereo not given)	736
O=C(NCc1ccccc1F)C1CCN(c2cncnc2N2CCCC2)CC1	641
COc1cccc(CNC(=O)Nc2cc3c(cc2Oc2ccccc2)n(C)c(=O)n3C)c1	840
CCOCCOC(=O)C1=C(C)NC2=C(C(=O)C(C(=O)OC)C(C)C2)C1c1ccccc1F (stereo not given)	862
Cc1cc2[nH]c(C(=O)NCc3ccc(N4CCOCC4)cc3)c(CN3CCCC3)c2s1	660
CCOc1ccc(S(=O)(=O)N2CCCN(c3ccc(=O)n(-c4ccc(F)cc4)n3)CC2)cc1	885
Cc1ccc(NC(=O)C2CCN(S(C)(=O)=O)c3cc(Cl)ccc3O2)cc1 (stereo not given)	1010

Structure (SMILES)	RP-LC retention time [s]
O=c1c2sccc2n(Cc2nc(-c3cccc(C(F)(F)F)c3)no2)c(=O)n1-c1ccc(F)cc1	1070
O=C(Nc1cnc(-c2ccccc2)nc1)c1cccc(Cl)c1	1050
CC(=O)N1CCN(S(=O)(=O)c2cc3c4c(c2)CCC(=O)N4CCC3)CC1	647
CCn1cc(C(CNC(=O)Nc2ccc(OC)cc2)c2cccnc2)c2ccccc21 (stereo not given)	700
COC(=O)Nc1ccc(CC(=O)NCC(F)(F)F)cc1	639
COc1cccc2c1ccn2CCNC(=O)C1CC(=O)N(c2n[nH]c3ccccc23)C1 (stereo not given)	722
CCC(Oc1ccc(=O)n(-c2ccc(F)cc2)n1)C(=O)NCCC(C)C (stereo not given)	804
Cc1ccc(Cl)c(NS(=O)(=O)c2cc(-c3[nH]ncc3C(=O)N3CCCC3)oc2C)c1	739
Cc1ccc2c(c1)sc1nc(C)c(S(=O)(=O)Nc3ccc(Cl)cc3)c(=O)n12	1160
Cc1sc(-c2cc(C(F)(F)F)[nH]n2)cc1S(=O)(=O)N1CCCCCC1	1110
Cc1ccc(C)c(Sc2cc(N3CCC(C(=O)NCCCOC(C)C)CC3)ncn2)c1	823
O=S(=O)(Nc1ccc(-c2noc(COc3ccc(F)cc3)n2)cc1)c1cccs1	1040
O=C(Nc1cccc(F)c1)N1C[C@H]2C[C@H](C1)[C@H]1CCCC(=O)N1C2	660
Cc1cc(C(=O)N2c3ccccc3CC2c2nc(C3CC3)no2)nn1C (stereo not given)	929
CC(C)CNC(=O)c1ccn[nH]1	604
Cc1cc(NC(=O)Cn2nc(N(C)C)c3ccccc3c2=O)ccc1Br	995
CCN1CCN(S(=O)(=O)c2cccc(-c3nc(-c4ccc(C)cc4)no3)c2)CC1	786
FC(F)(F)c1cccc(CSc2ccc(-n3ccnc3)nn2)c1	671
COc1cccc(-c2n[nH]c3c2C(c2ccc(O)c(OC)c2)NC3=O)c1 (stereo not given)	634
Cc1cc(N2C(=O)CCS2(=O)=O)cc(C)c1S(=O)(=O)N1CCC(C(N)=O)CC1	648
CCCCNC1(c2cc3ccccc3s2)CCCCC1	831
